# Data as given in patent publication US20240217978A1 (CHONG KUN DANG PHARMACEUTICAL CORP., priority 2021, published 2024).
# Target: human adenosine A2a receptor (Homo sapiens (Human), UniProt P29274)
# Assay: A2a receptor binding affinity, [3H]-NECA radioligand binding test
# Conditions: [3H]-NECA 37 nM; membrane from HEK-293 cells transfected with human adenosine A2a receptor
# In short: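 IC50 values (μM) come from displacement of [3H]-NECA, used at 37 nM final, on human A2a receptor membranes from transfected HEK-293 cells. Incubation lasted one hour at room temperature in Tris/MgCl2/EDTA buffer, pH 7.4; filter-bound radioactivity was counted by scintillation.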
# human adenosine A2a receptor, sequence (P29274 whole entry): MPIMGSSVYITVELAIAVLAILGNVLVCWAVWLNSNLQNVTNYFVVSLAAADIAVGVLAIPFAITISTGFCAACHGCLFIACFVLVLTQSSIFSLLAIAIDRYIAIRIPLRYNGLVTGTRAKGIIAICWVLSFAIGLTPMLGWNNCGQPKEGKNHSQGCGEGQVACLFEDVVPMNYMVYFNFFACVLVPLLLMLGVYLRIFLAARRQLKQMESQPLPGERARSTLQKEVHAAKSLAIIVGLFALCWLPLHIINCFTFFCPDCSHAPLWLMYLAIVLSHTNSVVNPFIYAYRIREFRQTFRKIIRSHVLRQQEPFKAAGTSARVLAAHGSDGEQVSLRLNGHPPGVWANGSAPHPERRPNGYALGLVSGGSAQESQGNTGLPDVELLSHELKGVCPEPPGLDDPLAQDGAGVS
row,Compound,IC50
1,"Nc1nc(N2CCC[C@H]2C(=O)N2CCN(CC(F)F)CC23CC3)nc2nc(-c3ccco3)nn12 [Example 341, (S)-(1-(7-amino-2-(furan-2-yl)-[1,2,4]triazolo[1,5-a][1,3,5]triazin-5-yl)pyrrolidin-2-yl)(7-(2,2-difluoroethyl)-4,7-diazaspiro[2.5]octan-4-yl)methanone]",28 nM
2,"C[C@@H]1CN(CC(C)(F)F)CCN1C(=O)[C@@H]1CCCN1c1nc(N)n2nc(-c3ccco3)nc2n1 [Example 372, ((S)-1-(7-amino-2-(furan-2-yl)-[1,2,4]triazolo[1,5-a][1,3,5]triazin-5-yl)pyrrolidin-2-yl)((R)-4-(2,2-difluoropropyl)-2-methylpiperazin-1-yl) methanone]",1 nM
3,"Cc1ccc(-c2nc3nc(N4CC[C@H]4C(=O)N4CCN(C(=O)CC(C)(C)O)CC4)nc(N)n3n2)o1 [Example 315, (S)-1-(4-(1-(7-amino-2-(5-methylfuran-2-yl)-[1,2,4]triazolo[1,5-a][1,3,5]triazin-5-yl)azetidine-2-carbonyl)piperazin-1-yl)-3-hydroxy-3-methylbutan-1-one]",16 nM
4,"CCCCN1CCN(C(=O)[C@@H]2CCN2c2nc(N)n3nc(-c4ccco4)nc3n2)CC1 [Example 111, (S)-(1-(7-amino-2-(furan-2-yl)-[1,2,4]triazolo[1,5-a][1,3,5]triazin-5-yl)azetidin-2-yl)(4-butylpiperazin-1-yl)methanone]",8 nM
5,"Nc1nc(N2CCC[C@H]2C(=O)N2CCC(CN3CC(F)C3)CC2)nc2nc(-c3ccco3)nn12 [Example 406, (S)-(1-(7-amino-2-(furan-2-yl)-[1,2,4]triazolo[1,5-a][1,3,5]triazin-5-yl)pyrrolidin-2-yl)(4-((3-fluoroazetidin-1-yl)methyl)piperidin-1-yl)methanone]",17 nM
6,"Nc1nc(N2CCC[C@H]2C(=O)N2CCN(c3nccs3)CC2)nc2nc(-c3ccco3)nn12 [Example 125, 2-(4-((7-amino-2-(furan-2-yl)-[1,2,4]triazolo[1,5-a][1,3,5]triazin-5-yl)-L-prolyl)piperazin-1-yl)thiazole]",9 nM
7,"CC(C)[C@H](Nc1nc(N)n2nc(-c3ccco3)nc2n1)C(=O)N1CCN(CC(C)(C)F)CC1 [Example 59, (S)-2-((7-amino-2-(furan-2-yl)-[1,2,4]triazolo[1,5-a][1,3,5]triazin-5-yl)amino)-1-(4-(2-fluoro-2-methylpropyl)piperazin-1-yl)-3-methylbutan-1-one]",7 nM
8,"Nc1nc(N2CCC[C@H]2C(=O)N2CCCN(c3ccc(F)cc3F)CC2)nc2nc(-c3ccco3)nn12 [Example 276, (S)-(1-(7-amino-2-(furan-2-yl)-[1,2,4]triazolo[1,5-a][1,3,5]triazin-5-yl)pyrrolidin-2-yl)(4-(2,4-difluorophenyl)-1,4-diazepan-1-yl)methanone]",7 nM
9,"Nc1nc(N2CCC[C@@H]2C(=O)N2CCN(c3ccc(F)cc3F)CC2)nc2nc(-c3ccco3)nn12 [Example 97, (R)-(1-(7-amino-2-(furan-2-yl)-[1,2,4]triazolo[1,5-a][1,3,5]triazin-5-yl)pyrrolidin-2-yl)(4-(2,4-difluorophenyl)piperazin-1-yl)methanone]",3350 nM
10,"Nc1nc(N2CCC[C@H]2C(=O)N2CCN(CC(F)(F)C(F)(F)F)CC2)nc2nc(-c3ccco3)nn12 [Example 227, (S)-(1-(7-amino-2-(furan-2-yl)-[1,2,4]triazolo[1,5-a][1,3,5]triazin-5-yl)pyrrolidin-2-yl)(4-(2,2,3,3,3-pentafluoropropyl)piperazin-1-yl)methanone]",9 nM
11,"Nc1nc(N[C@H](C(=O)N2CCN(CC(F)(F)F)CC2)C2CCCCC2)nc2nc(-c3ccco3)nn12 [Example 148, (S)-2-((7-amino-2-(furan-2-yl)-[1,2,4]triazolo[1,5-a][1,3,5]triazin-5-yl)amino)-2-cyclohexyl-1-(4-(2,2,2-trifluoroethyl)piperazin-1-yl)ethan-1-one]",8 nM
12,"COC[C@H](Nc1nc(N)n2nc(-c3ccco3)nc2n1)C(=O)N1CCN(c2nccs2)CC1 [Example 305, (S)-2-((7-amino-2-(furan-2-yl)-[1,2,4]triazolo[1,5-a][1,3,5]triazin-5-yl)amino)-3-methoxy-1-(4-(thiazol-2-yl)piperazin-1-yl)propan-1-one]",16 nM
13,"Cc1ccc(-c2nc3nc(N4CC[C@H]4C(=O)N4CCN(C(=O)c5ccccc5)CC4)nc(N)n3n2)o1 [Example 207, (S)-(1-(7-amino-2-(5-methylfuran-2-yl)-[1,2,4]triazolo[1,5-a][1,3,5]triazin-5-yl)azetidin-2-yl)(4-benzoylpiperazin-1-yl)methanone]",11 nM
14,"C[C@H](Nc1nc(N)n2nc(-c3ccco3)nc2n1)C(=O)N1CCN(c2nccs2)CC1 [Example 251, (S)-2-((7-amino-2-(furan-2-yl)-[1,2,4]triazolo[1,5-a][1,3,5]triazin-5-yl)amino)-1-(4-(thiazol-2-yl)piperazin-1-yl)propan-1-one]",13 nM
15,Nc1nc(N2CCC[C@H]2C(=O)N2CCN(C(=O)C3CCS(=O)(=O)CC3)CC2)nc2nc(-c3ccco3)nn12 [Example 106],7 nM
16,COc1cccc(C(=O)N2CCN(C(=O)[C@@H]3CCCN3c3nc(N)n4nc(-c5ccco5)nc4n3)CC2)c1 [Example 63],1 nM
17,"Nc1nc(N2CC[C@H]2C(=O)N2CCC(C3CCN(CC(F)(F)C(F)(F)F)CC3)CC2)nc2nc(-c3ccco3)nn12 [Example 326, (S)-(1-(7-amino-2-(furan-2-yl)-[1,2,4]triazolo[1,5-a][1,3,5]triazin-5-yl)azetidin-2-yl)(1′-(2,2,3,3,3-pentafluoropropyl)-[4,4′-bipiperidin]-1-yl)methanone]",0.8 nM
18,"C[C@@H]1CN(CC(C)(C)F)CCN1C(=O)[C@@H]1CCCN1c1nc(N)n2nc(-c3ccco3)nc2n1 [Example 374, ((S)-1-(7-amino-2-(furan-2-yl)-[1,2,4]triazolo[1,5-a][1,3,5]triazin-5-yl)pyrrolidin-2-yl)((R)-4-(2-fluoro-2-methylpropyl)-2-methylpiperazin-1-yl) methanone]",0.8 nM
19,"Nc1nc(N2CCC[C@H]2C(=O)N2CC(Cc3ccccc3)C2)nc2nc(-c3ccco3)nn12 [Example 113, (S)-(1-(7-amino-2-(furan-2-yl)-[1,2,4]triazolo[1,5-a][1,3,5]triazin-5-yl)pyrrolidin-2-yl)(3-benzylazetidin-1-yl)methanone]",9 nM
20,"COCCN1CCN(C(=O)[C@H]2CCCN2c2nc(N)n3nc(-c4ccco4)nc3n2)CC1 [Example 92, (R)-(1-(7-amino-2-(furan-2-yl)-[1,2,4]triazolo[1,5-a][1,3,5]triazin-5-yl)pyrrolidin-2-yl)(4-(2-methoxyethyl)piperazin-1-yl)methanone]",2290 nM
21,"CN1CCN(C(=O)[C@@H]2CCCN2c2nc(N)n3nc(-c4ccco4)nc3n2)CC1=O [Example 145, 4-((7-amino-2-(furan-2-yl)-[1,2,4]triazolo[1,5-a][1,3,5]triazin-5-yl)-L-prolyl)-1-methylpiperazin-2-one]",13 nM
22,"CC(C)(O)CN1CCN(C(=O)[C@@H]2CCN2c2nc(N)n3nc(-c4ccco4)nc3n2)CC1 [Example 350, (S)-(1-(7-amino-2-(furan-2-yl)-[1,2,4]triazolo[1,5-a][1,3,5]triazin-5-yl)azetidin-2-yl)(4-(2-hydroxy-2-methylpropyl)piperazin-1-yl)methanone]",9 nM
